conditions: [M+H]+; instrument: TW; Major Mix IMS/Tof Calibration Kit (Waters)

| collision cross section (N2) [Å²] | Compound |
| --- | --- |
| 167.6 | CN1C[C@@H]2c3ccccc3Oc3ccc(Cl)cc3[C@H]2C1 [Asenapine] |
| 164.2 | CNCC[C@@H](Oc1ccccc1C)c1ccccc1 [Atomoxetine] |
| 233 | CC(C)c1c(C(=O)Nc2ccccc2)c(-c2ccccc2)c(-c2ccc(F)cc2)n1CC[C@@H](O)C[C@@H](O)CC(=O)O [Atorvastatin] |
| 177.7 | OC(CCN1CCCCC1)(c1ccccc1)C1C[C@H]2C=C[C@@H]1C2 (stereo not given in full) [Biperiden] |
| 200.8 | O=C(O)COCCN1CCN(C(c2ccccc2)c2ccc(Cl)cc2)CC1 (stereo not given) [Cetirizine] |
| 170.6 | CN(C)CCCN1c2ccccc2Sc2ccc(Cl)cc21 [Chlorpromazine] |
| 174.3 | CN(C)CCCN1c2ccccc2CCc2ccc(Cl)cc21 [Clomipramine] |
| 171 | CNCC[C@H](Oc1cccc2ccccc12)c1cccs1 [Duloxetine] |
| 226.9 | CC(C)(C(=O)O)c1ccc(C(O)CCCN2CCC(C(O)(c3ccccc3)c3ccccc3)CC2)cc1 (stereo not given) [Fexofenadine] |
| 193.7 | O=C(CCCN1CCC(O)(c2ccc(Cl)cc2)CC1)c1ccc(F)cc1 [Haloperidol] |
| 197.4 | OCCOCCN1CCN(C(c2ccccc2)c2ccc(Cl)cc2)CC1 (stereo not given) [Hydroxyzine] |
| 214.6 | Cc1ccc(NC(=O)c2ccc(CN3CCN(C)CC3)cc2)cc1Nc1nccc(-c2cccnc2)n1 [Imatinib] |
| 185.6 | CC1Cc2ccccc2N1NC(=O)c1ccc(Cl)c(S(N)(=O)=O)c1 (stereo not given) [Indapamide] |
| 179.5 | COc1ccc2c(c1)c(CC(=O)O)c(C)n2C(=O)c1ccc(Cl)cc1 [Indomethacin] |
| 200.8 | CCCCC1=NC2(CCCC2)C(=O)N1Cc1ccc(-c2ccccc2-c2nn[nH]n2)cc1 [Irbesartan] |
| 176.8 | COc1ccc2c(c1)N(C[C@H](C)CN(C)C)c1ccccc1S2 [Levomepromazine] |
| 187.4 | CCOC(=O)N1CCC(=C2c3ccc(Cl)cc3CCc3cccnc32)CC1 [Loratadine] |
| 163.1 | NCCCC12CCC(c3ccccc31)c1ccccc12 [Maprotiline-M N-desmethyl] |
| 208.2 | Cc1cccc(CN2CCN(C(c3ccccc3)c3ccc(Cl)cc3)CC2)c1 (stereo not given) [Meclozine] |

Continued, molecule first:

| Compound | collision cross section (N2) [Å²] |
| --- | --- |
| CCCCc1oc2ccccc2c1C(=O)c1cc(I)c(OCCNCC)c(I)c1 [Amiodarone-M N-Desethyl] | 219.8 |
| CCCC1C(=O)N2C(N(C)C)=Nc3ccc(C)cc3N2C1=O (stereo not given) [Apazone] | 169.5 |
| CN(C)C(=O)Oc1cc(OC(=O)N(C)C)cc(C(O)CNC(C)(C)C)c1 (stereo not given) [Bambuterol] | 189.7 |
| O=C1CN=C(c2ccccn2)c2cc(Br)ccc2N1 [Bromazepam] | 159.8 |
| C[C@@H](N)Cc1c2ccoc2c(Br)c2ccoc12 [Bromodragonfly] | 158.1 |
| CO[C@]12CC[C@@]3(C[C@@H]1[C@](C)(O)C(C)(C)C)[C@H]1Cc4ccc(O)c5c4[C@@]3(CCN1CC1CC1)[C@H]2O5 [Buprenorphine] | 209.7 |
| COc1cc(CNC(=O)CCCC/C=C/C(C)C)ccc1O [Capsaicin] | 183 |
| O=C1CC(=O)N(c2ccccc2)c2cc(Cl)ccc2N1 [Clobazam-M nor] | 161.7 |
| CN1C(=O)CC(=O)N(c2ccccc2)c2cc(Cl)ccc21 [Clobazam] | 165.7 |
| Nc1ccc2c(c1)C(c1ccccc1Cl)=NCC(=O)N2 [Clonazepam-M 7-amino] | 162.5 |
| COC(=O)[C@H]1[C@@H](OC(=O)c2ccccc2)C[C@@H]2CC[C@H]1N2C [Cocaine] | 169.8 |
| COc1ccc2c3c1O[C@H]1[C@@H](O)C=C[C@H]4[C@@H](C2)N(C)CC[C@@]341 [Codeine] | 168.2 |
| CN1C(=O)CC[C@H]1c1cccnc1 [Cotinine] | 140.7 |
| O=C1C[N+]([O-])=C(c2ccccc2)c2cc(Cl)ccc2N1 [Demoxepam] | 161.7 |
| c1ccc(C(c2ccccc2)C2CCCCN2)cc1 (stereo not given) [Desoxypipradrol] | 164.1 |
| O=C1CN=C(c2ccccc2)c2cc(Cl)ccc2N1 [Diazepam-M N-desmethyl] | 160.1 |
| CN1C(=O)CN=C(c2ccccc2)c2cc(Cl)ccc21 [Diazepam] | 164.2 |
| CCCCOc1cc(C(=O)NCCN(CC)CC)c2ccccc2n1 [Dibucaine] | 196.2 |

| Compound | collision cross section (N2) [Å²] |
| --- | --- |
| C/C=C1\N(C)C(C)CC1(c1ccccc1)c1ccccc1 (stereo not given) [EDDP] | 166.2 |
| CCOC(=O)[C@H](CCc1ccccc1)N[C@@H](C)C(=O)N1CCC[C@H]1C(=O)O [Enalapril] | 187.2 |
| CCOC(=O)C(c1ccccc1)C1CCCCN1 (stereo not given) [Ethylphenidate] | 159.5 |
| CNC(C)C(=O)c1ccc(F)cc1 (stereo not given) [Flephedrone] | 139.8 |
| COc1ccc2c3c1O[C@H]1C[C@@H](O)C=C[C@@]31CCN(C)C2 [Galantamine] | 166.9 |
| CCC1=C(C)CN(C(=O)NCCc2ccc(S(=O)(=O)NC(=O)NC3CCC(C)CC3)cc2)C1=O (stereo not given) [Glimepiride] | 216.6 |
| Cc1cnc(C(=O)NCCc2ccc(S(=O)(=O)NC(=O)NC3CCCCC3)cc2)cn1 [Glipizide] | 198.9 |
| COc1ccc2c3c1O[C@H]1C(=O)CC[C@H]4[C@@H](C2)N(C)CC[C@]314 [Hydrocodone] | 167.4 |
| NC1(c2ccccc2Cl)CCCCC1=O (stereo not given) [Ketamine-M nor] | 147.1 |
| CNC1(c2ccccc2Cl)CCCCC1=O (stereo not given) [Ketamine] | 149.2 |
| CNC(=O)C(CCN1CCC(O)(c2ccc(Cl)cc2)CC1)(c1ccccc1)c1ccccc1 [Loperamide-M Desmethyl] | 218.7 |
| O=C1Nc2ccc(Cl)cc2C(c2ccccc2Cl)=NC1O (stereo not given) [Lorazepam] | 165.8 |
| CNC(C)Cc1ccc2c(c1)OCO2 (stereo not given) [MDMA] | 144.9 |
| CCCC(C(=O)c1ccc2c(c1)OCO2)N1CCCC1 (stereo not given) [MDPV] | 166.7 |
| CCOC(=O)CC(SP(=S)(OC)OC)C(=O)OCC (stereo not given) [Malathion] | 165.9 |
| CN1CCN=C(c2ccccc2)c2cc(Cl)ccc21 [Medazepam] | 160.8 |
| Cc1cnc(NC(=O)C2=C(O)c3ccccc3S(=O)(=O)N2C)s1 [Meloxicam] | 173.9 |
| COc1ccc(CN(CCN(C)C)c2ccccn2)cc1 [Mepyramine] | 169.6 |

— the C3SDB collision cross section collection
